Like-named read-outs stand apart in the source and are kept apart here.
Experiment: Plasma pharmacokinetics of emodepside, multiple ascending dose (MAD) study
Format: in vivo, human
Conditions: for AUC 0–24 /D / C max /D / AUC last /D / t ½ 0–24 (dominant half-life) / AUC 0–24 / Cmax: mean (CV%); for t ½ 0–24 (dominant half-life): Day 10, terminal slope of log concentration–time (0–24 hr) curve; for Cmax/Ctrough ratio: after the last dose on Day 10; for MRT: Day 1, mean (CV%); for AUC 0–24 / Cmax: HPLC-MS/MS; for CL/F: read-out: CL ss /F (converted); for Vd/F: read-out: V z /F; for half-life: read-out: Terminal t ½ (converted)
Protocol: Emodepside and placebo were supplied as a LSF and a standard immediate‐release (IR) tablet. The LSF was a 0.1% (w/v) solution containing 1 mg emodepside/mL. Conventional IR tablets containing emodepside in crystalline form were supplied in 2 dosage strengths, 5 and 20 mg, for the single ascending dose (SAD) study.
Blood samples (5 mL) were collected by venepuncture or via a cannula into EDTA tubes and immediately placed on ice. Samples were centrifuged at 1500 g for 10 minutes at 4°C. The plasma was aliquoted into 2 polypropylene tubes, which were stored at −20°C. Blood samples for PK analysis were taken at the following time points: • SAD: predose and 0.5, 1, 1.5, 2, 2.5, 3, 4, 5, 6, 8, 12, 24, 36, 48, 72, 96, 120, 144 and 168 hours, and 21 days postdose (cohort 1–9) or predose and 0.5, 1, 3, 6, 8, 12, 24, 36, 48, 72, 96, 120, 144 and 168 hours, and 10, 14, 18 and 21 days postdose (cohort 10). • Multiple ascending dose (MAD), as below: • on Day 1: predose and at 0.25, 0.5, 1, 1.5, 2, 2.5, 3, 4, 6, 8, 12 and 15 hours postdose • on Days 2–9: before the morning dose • on Day 10: before and at 0.25, 0.5, 1, 1.5, 2, 2.5, 3, 4, 6, 8, 12 and 15 hours • on Days 11, 12, 13, 14, 15, 18, 21, 24 and 30.
Emodepside plasma concentrations were determined by a validated high performance liquid chromatography–tandem mass spectrometry assay, using a Alltima C18 5 μm 150 mm x 2.1 mm column and an Applied Biosystems API4000 Turbo Ion Spray detector using positive ion mode. Analyst version 1.3.2 or 1.6.3 software, obtained from AB Sciex UK Ltd, Warrington, UK was used for chromatogram data analysis and quantitative calculations. Deuterated emodepside‐D16 was used as the internal standard. The lower limit of quantitation for emodepside in plasma was 1 ng/mL. Values below this limit were not used to calculate the PK parameters, except values that were below the limit of quantification before Cmax, which were set to zero.
The highest observed plasma concentration (Cmax) was determined directly from concentration–time data, as was the time to reach maximum plasma concentration (tmax). The area under the plasma concentration–time curve from time zero (predose) to the time of last quantifiable concentration (AUC0‐last) was calculated using the linear‐log trapezoidal rule. Elimination half‐life (t1/2) was calculated by the equation ln2/λz.
Statistical analyses were performed using SAS version 9.3 (Cary, NC, USA). Demographic data and baseline characteristics were listed and summarised. […] PK parameters were derived from plasma concentration vs. time data using a noncompartmental analysis in Phoenix WinNonlin version 7 (Certara Inc., Princeton, NJ, USA). Plasma concentration vs. time data and PK parameters were listed, and summarised by treatment, using descriptive statistics. Mean concentrations were calculated only if at least ⅔ of the individual concentrations were above the lower limit of quantification. […] Planned sampling times were used to summarise plasma‐concentration data; actual sampling times were used in the derivation of PK parameters.

[1] = 5 mg OD LSF fasting, Day 1, dose-normalised
[2] = 5 mg OD LSF fasting, Day 10, dose-normalised
[3] = 10 mg BID LSF fasting, Day 1, dose-normalised
[4] = 10 mg BID LSF fasting, Day 10, dose-normalised
[5] = 10 mg OD LSF fasting, Day 1, dose-normalised
[6] = 10 mg OD LSF fasting, Day 10, dose-normalised
[7] = human, plasma, po, 5 mg, 5 mg OD LSF fasting, Day 1, plasma
[8] = human, plasma, po, 5 mg, 5 mg OD LSF fasting, Day 10, mean (CV%)
[9] = human, plasma, po, 5 mg, 5 mg OD LSF fasting, Day 10, plasma
[10] = human, plasma, po, 10 mg, 10 mg BID LSF fasting, Day 1, plasma
[11] = human, plasma, po, 10 mg, 10 mg BID LSF fasting, Day 10, mean (CV%)
[12] = human, plasma, po, 10 mg, 10 mg BID LSF fasting, Day 10, plasma
[13] = human, plasma, po, 10 mg, 10 mg OD LSF fasting, Day 1, plasma
[14] = human, plasma, po, 10 mg, 10 mg OD LSF fasting, Day 10, mean (CV%)
[15] = human, plasma, po, 10 mg, 10 mg OD LSF fasting, Day 10, plasma

## CC(C)C[C@H]1C(=O)O[C@H](Cc2ccc(N3CCOCC3)cc2)C(=O)N(C)[C@@H](CC(C)C)C(=O)O[C@H](C)C(=O)N(C)[C@@H](CC(C)C)C(=O)O[C@H](Cc2ccc(N3CCOCC3)cc2)C(=O)N(C)[C@@H](CC(C)C)C(=O)O[C@H](C)C(=O)N1C [emodepside]
[1]
  AUC 0–24 /D: 115 (19.7) [h.ng/mL]/mg
  C max /D: 18.8 (17.8) [ng/mL]/mg
5 mg OD LSF fasting, Day 1, median (range)
  Tmax: 1.00 (1.00–1.07) h
[2]
  AUC 0–24 /D: 338 (31.3) [h.ng/mL]/mg
  AUC last /D: 3872 (29.9) [h.ng/mL]/mg
  C max /D: 29.9 (17.9) [ng/mL]/mg
5 mg OD LSF fasting, Day 10, mean (CV%)
  λ z: 0.00166 (42.6) 1/h
5 mg OD LSF fasting, Day 10, mean (CV%), geometric mean
  Terminal t ½: 419 (42.6) h
5 mg OD LSF fasting, Day 10, median (range)
  Tmax: 1.00 (1.00–1.50) h
5 mg OD LSF fasting
  t ½ 0–24 (dominant half-life): 26.9 (52.4) h
[3]
  AUC 0–24 /D: 71.4 (26.5) [h.ng/mL]/mg
  C max /D: 16.0 (20.4) [ng/mL]/mg
10 mg BID LSF fasting, Day 1, median (range)
  Tmax: 1.00 (1.00–1.58) h
[4]
  AUC 0–24 /D: 490 (35.8) [h.ng/mL]/mg
  AUC last /D: 5955 (29.1) [h.ng/mL]/mg
  C max /D: 34.9 (27.1) [ng/mL]/mg
10 mg BID LSF fasting, Day 10, mean (CV%)
  λ z: 0.00137 (56.9) 1/h
10 mg BID LSF fasting
  t ½ 0–24 (dominant half-life): 33.2 (55.0) h
10 mg BID LSF
  Cmax/Ctrough ratio: 1.9
[5]
  AUC 0–24 /D: 113 (32.7) [h.ng/mL]/mg
  C max /D: 18.6 (21.3) [ng/mL]/mg
[6]
  AUC 0–24 /D: 349 (44.2) [h.ng/mL]/mg
  AUC last /D: 4065 (43.5) [h.ng/mL]/mg
  C max /D: 28.7 (39.7) [ng/mL]/mg
10 mg OD LSF fasting, Day 10, mean (CV%)
  λ z: 0.00154 (30.6) 1/h
10 mg OD LSF fasting, Day 10, median (range)
  Tmax: 1.25 (1.00–2.00) h
10 mg OD LSF fasting
  t ½ 0–24 (dominant half-life): 18.4 (30.0) h
10 mg OD LSF
  Cmax/Ctrough ratio: 3.0
507 hours after the last morning dose, LLOQ 1 ng/mL
  Emodepside levels at the final sampling timepoint: still quantifiable in all subjects
LSF
  Geometric mean Cmax on Day 10, 10 mg BID group vs 10 mg OD group: 1.2 fold
human, plasma, po, 5 mg, 5 mg OD LSF fasting
  MRT: 7.28 h
[7]
  AUC 0–24: 574 ng·h/mL
  Cmax: 93.8 ng/mL
[8]
  CL/F: 49.3 mL/min
  Vd/F: 1790 L
[9]
  AUC 0–24: 1690 ng·h/mL
  Cmax: 149 ng/mL
human, plasma, po, 10 mg, 10 mg BID LSF fasting
  MRT: 10.8 h
[10]
  AUC 0–24: 1430 ng·h/mL
  Cmax: 160 ng/mL
human, plasma, po, 10 mg, 10 mg BID LSF fasting, Day 10, mean (CV%), geometric mean
  half-life: 508 h
[11]
  CL/F: 59.3 mL/min
  Vd/F: 2610 L
human, plasma, po, 10 mg, 10 mg BID LSF fasting, Day 10, median (range), read-out: t max
  Tmax: 1.5 h
[12]
  AUC 0–24: 4900 ng·h/mL
  Cmax: 349 ng/mL
human, plasma, po, 10 mg, 10 mg OD LSF fasting
  MRT: 7 h
human, plasma, po, 10 mg, 10 mg OD LSF fasting, Day 1, median (range), read-out: t max
  Tmax: 1.25 h
[13]
  AUC 0–24: 1140 ng·h/mL
  Cmax: 186 ng/mL
human, plasma, po, 10 mg, 10 mg OD LSF fasting, Day 10, mean (CV%), geometric mean
  half-life: 450 h
[14]
  CL/F: 47.8 mL/min
  Vd/F: 1860 L
[15]
  AUC 0–24: 3490 ng·h/mL
  Cmax: 287 ng/mL

— publication PMC8518114, “Safety, tolerability and pharmacokinetics of emodepside, a potential novel treatment for onchocerciasis (river blindness), in healthy male subjects” (British Journal of Clinical Pharmacology, 2021)
